Test results as given in US11324741B2, “Methods for treating visceral fat conditions” (Orexigen Therapeutics, Inc., priority 2008, dated 2022).

Legend:
Format in all cases: in vivo, human
[1] = test system: healthy, non-diabetic, obese subjects; assay: Double-blind, placebo-controlled multi-center trial, 24 weeks of treatment (Example 1); conditions: for Fasting Glucose / Insulin (mcU/mL) / Triglyceride / Waist (cm) / Weight (%): obese subjects; for Weight (%): naltrexone 48 mg qd, bupropion 400 mg, or 32/400 mg combination; for Visceral fat (%): subset with DEXA and multislice CT scans
Protocol: A double-blind, placebo-controlled multi-center trial was conducted with 285 healthy, non-diabetic, obese subjects. The subjects were administered either bupropion 200 mg bid, placebo (P), naltrexone 48 mg qd (N1), or bupropion 400 mg with naltrexone 32 mg qd (BN2). 182 subjects completed 24 weeks of treatment. A subset of 60 subjects had dual energy X-ray absorptometry (DEXA) and multislice CT scans to measure body fat, lean tissue and visceral fat (American Diabetes Association Annual Meeting 2007).
The groups were matched at baseline.

Subjects [2] = assay: Metabolic parameters (Example 2, Table 5); conditions: Table 5, Metabolic Parameters
Protocol: (§1) Subjects (n=117) received one of six treatments: two placebos (P+P), placebo and naltrexone (P+Nal), bupropion and placebo (Bup+P), bupropion and naltrexone 48 mg (Bup+Nal 48), bupropion and naltrexone 32 mg (Bup+Nal 32), or bupropion and naltrexone 16 mg (Bup+Nal 16).
(§2) The average change in visceral body mass is shown in FIG. 1 for the four treatments. […] Statistically significant improvements were also observed in several important metabolic parameters including: plasma glucose, serum insulin and plasma triglycerides.

Subjects [3] = assay: DEXA body scan and multi-slice CT scan of body fat and visceral fat at baseline and 6 months (Example 2); parameters: LS Mean (SE)^, Visceral Adipose Mass / Change from Baseline Mean (SD), Visceral Adipose Mass / LS Mean (SE)^, Total Body Adipose Mass / Change from Baseline Mean (SD), Total Body Adipose Mass: unit not given here; conditions: for Change from Baseline Mean (SD), Total Body Adipose Mass: DEXA; for Change from Baseline Mean (SD), Total Body Adipose Mass / Change from Baseline Mean (SD), Visceral Adipose Mass: baseline to 6 months; for Change in Waist Circumference (cm): Table 2, titled Baseline Weight, BMI and Weight Circumference; for Change in Waist Circumference (%) vs. placebo: Table 2; for LS Mean (SE)^, Total Body Adipose Mass / LS Mean (SE)^, Visceral Adipose Mass: change from baseline; for Change from Baseline Mean (SD), Visceral Adipose Mass: multi-slice CT
Protocol: as §1
The mass of selective visceral loss can be calculated based on total fat and the volume of visceral fat.
as §2
The percentage of this decrease was similar in magnitude in both visceral and overall adipose tissue.

Row | Structure (SMILES) | Fasting Glucose [1] [mg/dL] | Insulin (mcU/mL) [1] [mcU/mL] | Triglyceride [1] [mg/dL] | Waist (cm) [1] [cm] | Weight (%) [1] [%] | Visceral fat (%) [1] [%] | Plasma Glucose (Subjects [2]) [mg/dL] | Serum Insulin (uU/mL) (Subjects [2]) | Triglycerides (Subjects [2]) [mg/dL] | Change from Baseline Mean (SD), Total Body Adipose Mass (Subjects [3]) | Change in Waist Circumference (cm) (Subjects [3]) | Change in Waist Circumference (%) vs. placebo (Subjects [3]) [%] | LS Mean (SE)^, Total Body Adipose Mass (Subjects [3]) | LS Mean (SE)^, Visceral Adipose Mass (Subjects [3]) | Change from Baseline Mean (SD), Visceral Adipose Mass (Subjects [3])
1 | CC(NC(C)(C)C)C(=O)c1cccc(Cl)c1 (stereo not drawn) [Bupropion, bupropion] | 3.5 ± 1.5 | −0.5 ± 1.1 | -18.4 ± 9.0 | −2.9 ± 6.0 | −3.14 ± 0.7 | −2.3 ± 5.1 | 3.5 ± 1.5 | −0.5 ± 1.1 | -18.4 ± 9.0 | −4.1 | 1.9 | 1.8 | −2.6 | 0.2 | −2.3
2 | O=C1CC[C@@]2(O)[C@H]3Cc4ccc(O)c5c4[C@@]2(CCN3CC2CC2)[C@H]1O5 [Naltrexone, naltrexone] | 3.4 ± 1.7 | 1.7 ± 1.3 | -17.6 ± 10.4 | −3.8 ± 12.7 | −1.74 ± 0.9 | −0.1 ± 8.7 | 3.4 ± 1.7 | 1.7 ± 1.3 | -17.6 ± 10.4 | −3.2 | −1.5 | −1.4 | −1.5 | 3.5 | −0.1
